The text below walks through data of US12410113B2, “Sandalwood-type fragrance compounds” (SYMRISE AG, priority 2019, dated 2025).

This assay can be described thus: Odor detection threshold (ODT) by olfactometer TO8 and a panel of experts according to EN 13725. The following applies: for ODT (exp.) (−log): odor detection threshold as −log; for ODT (exp.) / ODT* (exp.) (ppm (v/v)): odor detection threshold, olfactometer TO8, expert panel, EN 13725. Here is the method: The ODT was measured by an olfactometer TO8 and a panel of experts according to standard EN 13725.

On to `CC1=CCC(CCC(C)CO)C1(C)C` (stereo not shown) [Brahmanol, 2-methyl-4-(2′,2′,3′-trimethyl-3′-cyclopenten-1′-yl)-butan-1-ol, reference compound], for which the “ODT (exp.) (−log)” value turned out to be 6.85E+00, the “ODT (exp.)” value came out at 141.22 ng/L and the “ODT* (exp.) (ppm (v/v))” value was 1.73E−02 ppm (v/v).

As to `C=C(CO)CCC1CC=C(C)C1(C)C` (stereo not shown) [Compound A, 2-methylene-4-(2,2,3-trimethylcyclopent-3-en-1-yl)butan-1-ol], the “ODT (exp.) (−log)” value came to 8.36E+00, the “ODT (exp.)” value was 4.34 ng/L and the “ODT* (exp.) (ppm (v/v))” value was 5.37E−04 ppm (v/v). The “factor by which threshold value is lower than Brahmanol” value (in comparison with Brahmanol) is listed as “about 35”.
